Source: patent US20110082130A1 (LIGAND PHARMACEUTICALS, INC., priority 2006, published 2011)
Like-named read-outs stand apart in the source and are kept apart here.

Biological target: T1, chimeric human H3 receptor (Homo sapiens, UniProt Q9Y5N1)
T1 construct: made in house; host or cells: Sf9 insect cells (baculovirus); P2 membrane preparation
Experiment: Chimeric human H3 receptor screening GTP binding assay (inhibition of histamine-stimulated GTP-gamma35S binding, Example 8)
Assay type: biochemical
Details: 4 μM of the compound, 1 μM histamine, read-out: percent inhibition of the signal obtained with 1 μM histamine
Procedure, shortened: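 Values are percent inhibition of 1 μM histamine-stimulated GTP-gamma35S […] binding, with non-specific binding (10 μM GTP-gammaS) subtracted, by compounds tested at 4 μM. Membranes (35 μg) from Sf9 cells expressing chimeric human H3 with G-protein subunits were used in Tris pH 7.4 buffer with 10 μM GDP. Incubation lasted 60 min at room temperature, followed by filtration and scintillation counting.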

T1 sequence (Q9Y5N1 with tags, fused parts or gaps): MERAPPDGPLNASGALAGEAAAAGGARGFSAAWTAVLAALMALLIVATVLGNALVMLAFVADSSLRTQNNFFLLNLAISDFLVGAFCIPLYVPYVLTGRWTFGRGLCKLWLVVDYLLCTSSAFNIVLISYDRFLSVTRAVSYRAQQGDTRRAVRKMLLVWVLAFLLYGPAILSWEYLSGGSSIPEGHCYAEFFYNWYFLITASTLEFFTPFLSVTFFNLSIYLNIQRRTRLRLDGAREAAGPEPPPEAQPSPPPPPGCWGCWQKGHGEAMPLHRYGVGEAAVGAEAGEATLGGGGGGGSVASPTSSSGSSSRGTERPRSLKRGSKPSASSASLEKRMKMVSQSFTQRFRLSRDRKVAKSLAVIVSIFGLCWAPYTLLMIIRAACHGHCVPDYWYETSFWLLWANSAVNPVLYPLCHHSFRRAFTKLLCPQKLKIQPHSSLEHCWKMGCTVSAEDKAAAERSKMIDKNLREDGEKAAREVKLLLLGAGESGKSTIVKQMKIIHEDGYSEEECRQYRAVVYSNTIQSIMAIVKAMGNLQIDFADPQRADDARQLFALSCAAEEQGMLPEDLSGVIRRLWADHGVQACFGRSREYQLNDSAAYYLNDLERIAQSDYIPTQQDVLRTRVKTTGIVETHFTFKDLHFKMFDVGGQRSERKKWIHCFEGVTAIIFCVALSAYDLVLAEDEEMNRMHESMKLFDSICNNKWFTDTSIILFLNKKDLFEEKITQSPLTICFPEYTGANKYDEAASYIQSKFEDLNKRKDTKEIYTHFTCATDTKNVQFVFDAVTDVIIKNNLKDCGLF

SMILES	inhibition at 4 µM (Table II "Ki", symbol †) [%]	inhibition at 4 µM ("†" in Ki of Table II) [%]
O=C(CN1CCc2cc(-c3ccc(OC(F)(F)F)cc3)ccc2C1)N1CCN(C2CCCC2)CC1 [Compound 479, 2-[2-(4-cyclopentylpiperazin-1-yl)-2-oxoethyl]-6-[4-(trifluoromethoxy)phenyl]-1,2,3,4-tetrahydroisoquinoline]	–	≥ 90
Cc1ccc(-c2ccc3c(c2)CCN(CC(=O)N2CCN(C4CCC4)CC2)C3)cc1 [Compound 435, 2-[2-(4-cyclobutylpiperazin-1-yl)-2-oxoethyl]-6-(4-methylphenyl)-1,2,3,4-tetrahydroisoquinoline]	–	≥ 90
Cc1ccc(-c2ccc3c(c2)CCN(CC(=O)N2CCN(C4CCCC4)CC2)C3)cc1 [Compound 436, 2-[2-(4-cyclopentylpiperazin-1-yl)-2-oxoethyl]-6-(4-methylphenyl)-1,2,3,4-tetrahydroisoquinoline]	–	≥ 90
COc1ccc(-c2ccc3c(c2)CCN(CC(=O)N2CCN(C(C)C)CC2)C3)cc1 [Compound 523, 2-[2-(4-isopropylpiperazin-1-yl)-2-oxoethyl]-6-(4-methoxyphenyl)-1,2,3,4-tetrahydroisoquinoline]	≥ 90	–
CC(C)C(C)N1C[C@@H]2C[C@H]1CN2C(=O)CN1CCc2cc(-c3cncnc3)ccc2C1 (stereo in doubt) [Compound 608, 2-{2-[(1S,4S)-5-(1,2-dimethylpropyl)-2,5-diazabicyclo[2.2.1]hept-2-yl]-2-oxoethyl}-6-pyrimidin-5-yl-1,2,3,4-tetrahydroisoquinoline]	≥ 90	–
CC(C)c1cccc(-c2ccc3c(c2)CCN(CC(=O)N2CCN(C4CCC4)CC2)C3)c1 [Compound 439, 2-[2-(4-cyclobutylpiperazin-1-yl)-2-oxoethyl]-6-(3-isopropylphenyl)-1,2,3,4-tetrahydroisoquinoline]	–	≥ 90
Cc1ccc(-c2ccc3c(c2)CCN(CC(=O)N2CCN(C4CCC4)CC2)C3)cc1C [Compound 447, 2-[2-(4-cyclobutylpiperazin-1-yl)-2-oxoethyl]-6-(3,4-dimethylphenyl)-1,2,3,4-tetrahydroisoquinoline]	–	≥ 90
CSc1cccc(-c2ccc3c(c2)CCN(CC(=O)N2CCN(C4CCCC4)CC2)C3)c1 [Compound 495, 2-[2-(4-cyclopentylpiperazin-1-yl)-2-oxoethyl]-6-[3-(methylthio)phenyl]-1,2,3,4-tetrahydroisoquinoline]	≥ 90	–
COc1cc(-c2ccc3c(c2)CCN(CC(=O)N2CCN(C(C)C)CC2)C3)cc(OC)c1OC [Compound 519, 2-[2-(4-isopropylpiperazin-1-yl)-2-oxoethyl]-6-(3,4,5-trimethoxyphenyl)-1,2,3,4-tetrahydroisoquinoline]	≥ 90	–
CC(C)c1cccc(-c2ccc3c(c2)CCN(CC(=O)N2CCN(C4CCCCC4)CC2)C3)c1 [Compound 441, 2-[2-(4-cyclohexylpiperazin-1-yl)-2-oxoethyl]-6-(3-isopropylphenyl)-1,2,3,4-tetrahydroisoquinoline]	–	≥ 90
CCCCc1ccc(-c2ccc3c(c2)CCN(CC(=O)N2CCN(C(C)C)CC2)C3)cc1 [Compound 454, 6-(4-butylphenyl)-2-[2-(4-isopropylpiperazin-1-yl)-2-oxoethyl]-1,2,3,4-tetrahydroisoquinoline]	–	≥ 90
COc1ccc2cc(-c3ccc4c(c3)CCN(CC(=O)N3CCN(C(C)C)CC3)C4)ccc2c1 [Compound 512, 2-[2-(4-isopropylpiperazin-1-yl)-2-oxoethyl]-6-(6-methoxy-2-naphthyl)-1,2,3,4-tetrahydroisoquinoline]	≥ 90	–
CC(C)c1ccc(-c2ccc3c(c2)CCN(CC(=O)N2CCN(C4CCC4)CC2)C3)cc1 [Compound 443, 2-[2-(4-cyclobutylpiperazin-1-yl)-2-oxoethyl]-6-(4-isopropylphenyl)-1,2,3,4-tetrahydroisoquinoline]	–	≥ 90
CSc1cccc(-c2ccc3c(c2)CCN(CC(=O)N2CCN(C4CCC4)CC2)C3)c1 [Compound 494, 2-[2-(4-cyclobutylpiperazin-1-yl)-2-oxoethyl]-6-[3-(methylthio)phenyl]-1,2,3,4-tetrahydroisoquinoline]	≥ 90	–
COc1ccc2cc(-c3ccc4c(c3)CCN(CC(=O)N3CCN(C5CCCC5)CC3)C4)ccc2c1 [Compound 510, 2-[2-(4-cyclopentylpiperazin-1-yl)-2-oxoethyl]-6-(6-methoxy-2-naphthyl)-1,2,3,4-tetrahydroisoquinoline]	≥ 90	–
Cc1cc(C)cc(-c2ccc3c(c2)CCN(CC(=O)N2CCN(C(C)C)CC2)C3)c1 [Compound 458, 6-(3,5-dimethylphenyl)-2-[2-(4-isopropylpiperazin-1-yl)-2-oxoethyl]-1,2,3,4-tetrahydroisoquinoline]	–	≥ 90
COc1ccc2cc(-c3ccc4c(c3)CCN(CC(=O)N3CCN(C5CCCCC5)CC3)C4)ccc2c1 [Compound 511, 2-[2-(4-cyclohexylpiperazin-1-yl)-2-oxoethyl]-6-(6-methoxy-2-naphthyl)-1,2,3,4-tetrahydroisoquinoline]	≥ 90	–

Results, then the compound that gave them:

inhibition at 4 µM (Table II "Ki", symbol †) [%]	inhibition at 4 µM ("†" in Ki of Table II) [%]	SMILES
≥ 90	–	O=C(CN1CCc2cc(-c3cc(F)cc(F)c3)ccc2C1)N1CCN(C2CCCCC2)CC1 [Compound 598, 2-[2-(4-cyclohexylpiperazin-1-yl)-2-oxoethyl]-6-(3,5-difluorophenyl)-1,2,3,4-tetrahydroisoquinoline]
≥ 90	–	O=C(CN1CCc2cc(-c3cc(F)cc(F)c3)ccc2C1)N1CCN(C2CCCC2)CC1 [Compound 597, 2-[2-(4-cyclopentylpiperazin-1-yl)-2-oxoethyl]-6-(3,5-difluorophenyl)-1,2,3,4-tetrahydroisoquinoline]
≥ 90	–	COc1ccc(-c2ccc3c(c2)CCN(CC(=O)N2CCN(C4CCCCC4)CC2)C3)cc1F [Compound 504, 2-[2-(4-cyclohexylpiperazin-1-yl)-2-oxoethyl]-6-(3-fluoro-4-methoxyphenyl)-1,2,3,4-tetrahydroisoquinoline]
–	≥ 90	Cc1ccc(F)c(-c2ccc3c(c2)CCN(CC(=O)N2CCN(C4CCCC4)CC2)C3)c1 [Compound 424, 2-[2-(4-cyclopentylpiperazin-1-yl)-2-oxoethyl]-6-(2-fluoro-5-methylphenyl)-1,2,3,4-tetrahydroisoquinoline]
≥ 90	–	O=C(CN1CCc2cc(-c3ccc(F)c(Cl)c3)ccc2C1)N1CCN(C2CCC2)CC1 [Compound 579, 6-(3-chloro-4-fluorophenyl)-2-[2-(4-cyclobutylpiperazin-1-yl)-2-oxoethyl]-1,2,3,4-tetrahydroisoquinoline]
–	≥ 90	O=C(CN1CCc2cc(-c3ccc(Cl)cc3)ccc2C1)N1CCN(C2CCCCC2)CC1 [Compound 406, 6-(4-chlorophenyl)-2-[2-(4-cyclohexylpiperazin-1-yl)-2-oxoethyl]-1,2,3,4-tetrahydroisoquinoline]
≥ 90	–	O=C(CN1CCc2cc(-c3ccc(F)c(F)c3)ccc2C1)N1CCN(C2CCCC2)CC1 [Compound 590, 2-[2-(4-cyclopentylpiperazin-1-yl)-2-oxoethyl]-6-(3,4-difluorophenyl)-1,2,3,4-tetrahydroisoquinoline]
≥ 90	–	O=C(CN1CCc2cc(-c3ccc(Cl)c(F)c3)ccc2C1)N1CCN(C2CCCCC2)CC1 [Compound 593, 6-(4-chloro-3-fluorophenyl)-2-[2-(4-cyclohexylpiperazin-1-yl)-2-oxoethyl]-1,2,3,4-tetrahydroisoquinoline]
